These results are taken from article PMC11243685, “Synthesis and Enzymatic Evaluation of a Small Library of Substituted Phenylsulfonamido-Alkyl Sulfamates towards Carbonic Anhydrase II” (Molecules, 2024).

A word on the inhibition: it is the relative decrease from the control value, in per cent. High values mean strong suppression, low ones little suppression. The term melting point denotes the temperature, or range, at which the solid turns liquid.

Structures are written as SMILES.

Data set [1] concerns the target T1, bovine carbonic anhydrase II (Bos taurus, UniProt P00921).
T1 construct: carbonic anhydrase II (bCAII, ≥3000 W-A units/mg from bovine erythrocytes) from Sigma; purchased Sigma (Taufkirchen, Germany); host or cells: isolated from bovine erythrocytes
The experiment in a line: Enzymatic assay of bCA II inhibition, absorbance at 415 nm.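 Further: enzyme is carbonic anhydrase II isolated from bovine erythrocytes, with its activity followed photometrically at 415 nm.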 The data set is classed as biochemical. Conditions: bCA II; 1 μM concentration of the inhibitor; triplicate with three technical replicas.
Procedure: The enzymatic assays have been performed with carbonic anhydrase II (bCAII, ≥3000 W-A units/mg from bovine erythrocytes) from Sigma (Taufkirchen, Germany) using a BMG Labtech Spectrostar Omega apparatus (BMG Labtech, Ortenberg, Germany) measuring λ = 415 nm. Conditions have been described previously [72]. Ki and Ki′ values were determined from Lineweaver–Burk, Dixon and Cornish Bowden plots, respectively.

T1 sequence (P00921 whole entry): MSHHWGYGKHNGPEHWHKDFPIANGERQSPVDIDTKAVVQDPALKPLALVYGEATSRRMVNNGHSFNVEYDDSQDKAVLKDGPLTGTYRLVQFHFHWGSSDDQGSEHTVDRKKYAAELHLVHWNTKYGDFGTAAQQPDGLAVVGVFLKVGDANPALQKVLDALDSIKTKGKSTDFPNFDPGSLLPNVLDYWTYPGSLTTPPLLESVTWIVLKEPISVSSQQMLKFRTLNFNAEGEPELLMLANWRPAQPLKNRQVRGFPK

On to `NS(=O)(=O)OCCCCCCCCCCCNS(=O)(=O)c1ccccc1` [10b, 11-(Phenylsulfonamido]undecyl Sulfamate], for which the melting point lay within 95 to 97 °C. Moreover, at 1 µM the inhibition in data set [1] was 7.2 ± 0.9%.

Turning to `CC(C)(C)c1ccc(S(=O)(=O)NCCCCCCCCOS(N)(=O)=O)cc1` [55b, 8-[(4-(tert-Butyl)phenyl)sulfonamido]octyl Sulfamate], the melting point fell in the range of 79 to 81 °C. This compound had an inhibition at 1 µM in data set [1] of 21.3 ± 1%.

On to `CC(C)c1ccc(S(=O)(=O)NCCCCOS(N)(=O)=O)cc1` [35b, 4-[(4-Isopropylphenyl)sulfonamido]butyl Sulfamate], for which the melting point is 95 to 97 °C. Also, 1 µM produced 43.7 ± 0.4% inhibition in data set [1].

`CC(C)c1ccc(S(=O)(=O)NCCCOS(N)(=O)=O)cc1` [34b, 3-[(4-Isopropylphenyl)sulfonamido]propyl Sulfamate] registered a melting point of 83 to 84 °C. In data set [1], this compound came in with an inhibition at 1 µM of 60.3 ± 0.9%.

As for `Cc1cccc(S(=O)(=O)NCCCCCCCOS(N)(=O)=O)c1` [24b, 7-[(3-Methylphenyl)sulfonamido]heptyl Sulfamate], the melting point is 55 to 57 °C. This compound also gave an inhibition at 1 µM in data set [1] of 27.1 ± 0.9%.

The compound `NS(=O)(=O)OCCCCCCCCNS(=O)(=O)c1ccccc1` [7b, 8-(Phenylsulfonamido]octyl Sulfamate] yielded a melting point of 77 to 78 °C. This compound showed an inhibition at 1 µM in data set [1] of 60.2 ± 0.7%.

`CC(C)c1ccc(S(=O)(=O)NCCCCCOS(N)(=O)=O)cc1` [36b, 5-[(4-Isopropylphenyl)sulfonamido]pentyl Sulfamate] showed a melting point of 95 to 97 °C. This compound also returned an inhibition at 1 µM in data set [1] of 40.8 ± 0.6%.

`CC(C)c1ccc(S(=O)(=O)NCCCCCCOS(N)(=O)=O)cc1` [37b, 6-[(4-Isopropylphenyl)sulfonamido]hexyl Sulfamate]: the melting point lay in the range of 102 to 103 °C. For the same compound, 1 µM produced 45.9 ± 0.7% inhibition in data set [1].

In turn, `CC(C)(C)c1ccc(S(=O)(=O)NCCCCCCOS(N)(=O)=O)cc1` [53b, 6-[(4-(tert-Butyl)phenyl)sulfonamido]hexyl Sulfamate] showed a melting point of 89 to 90 °C. This compound also showed an inhibition at 1 µM in data set [1] of 29.1 ± 0.9%.

For `NS(=O)(=O)OCCCNS(=O)(=O)c1ccc(C2CCCCC2)cc1` [69b, 3-[(4-Cyclohexylphenyl)sulfonamido]propyl Sulfamate], the melting point was in the range of 113 to 114 °C. This compound also gave an inhibition at 1 µM in data set [1] of 43.1 ± 1.5%.
